Experimental data taken from patent publication US11267826B2, “Penicillin-binding protein inhibitors” (priority 2017, dated 2022).

Key:
[1] = target: T1, E. coli PBP3 (Escherichia coli, UniProt P0AD68); assay: Bocillin FL competition binding assay, PBP3; parameters: species or system Escherichia coli K12; conditions: 15 min pre-incubation
T1 construct: 100 μg's of total membrane protein extracts containing PBPs; endogenous in cells; host or cells: Escherichia coli K12, membrane protein fraction
Method: (§1) To determine the ability of test compounds to bind Penicillin Binding Proteins (PBPs), a competition binding assay using Bocillin FL (fluorescent derivative of penicillin V) was adapted from the classical method used to assess PBP potency of beta-lactams.
(§2) Penicillin binding proteins were isolated from Escherichia coli K12 by growth of Escherichia coli K12 from a single colony in 4 L of Luria-Bertani (LB) broth at 35° C. and 250 rpm to an OD600 nm of 0.5. The cells were harvested by centrifugation at 7,000×g for 10 min. at 4° C. Cells were resuspended and washed in 50 mM potassium phosphate pH 7.5. The cells were re-suspended in sonication buffer [50 mM Tris-HCl pH 7.5, 1 mM MgCl2, 1 mM beta-mercaptoethanol, and 5 μg/mL DNAse I] and sonicated by 4 passes of 30 seconds at 45 W on ice. The sample was clarified by centrifugation at 3,000×g to remove cell debris and unbroken cells and supernatant containing the membrane proteins was retained. The membrane proteins including the PBPs were further purified from soluble constituents by an ultracentrifugation step at 100,000×g for 30 min. at 4° C. The membrane proteins are washed twice with 10 mM sodium phosphate pH 7, resuspended in a volume of 5 mL, quantitated by BCA assay, adjusted to […] and frozen at −80° C. until use.
(§3) The adapted Bocillin FL competition binding method described herein incorporates a 15 min. pre-incubation of test compound with isolated PBPs to attempt to balance the difference in mechanism of inhibition between beta-lactams (largely irreversible covalent bond to active site Serine) and the boron-containing PBP inhibitor test compounds (reversible covalent bond to active site Serine). Briefly, 50 μL reactions consisted of 100 μg's of total membrane protein extracts containing PBPs incubated with a dilution series of test compound ranging from 0.005 μg/mL to 2,480 μg/mL in 10 mM sodium phosphate pH7 containing 350 mM NaCl. Thirty minute reactions at 35° C. were initiated by addition of […] Bocillin FL, quenched by addition of SDS-PAGE loading buffer containing sodium dodecyl sulfate (SDS) and heated for 15 minutes at 95° C. to denature proteins in preparation for SDS-polyacrylamide gel electrophoresis. The Bocillin FL labeled PBPs are then separated by SDS-PAGE in Novex NuPage 10% Bis-Tris pre-cast gels (Invitrogen). The SDS-PAGE gel, post-electrophoresis, is then washed in water to remove excess SDS for 10 minutes at room temperature and placed on the scanning bed of a GE Healthcare/Amersham Biosciences Storm 860 fluorescence scanner. The excitation wavelength is in the blue spectrum at 450 nm and the emission at 520 nm is captured by the instrument. Effective PBP inhibitors are detected by a reduction in Bocillin FL labeling of the particular PBP over the dose range of test compound in a dose-responsive manner. High molecular weight PBP 1a/1b are not resolved by these gels, thus we report HMW PBP binding results in μg/mL for PBPs 1a/1b combined as well as for PBP2 and PBP3.
(§4) Representative results are shown in Table 2, where A represents a potency of >1000 μg/mL, B represents a potency between 64 and 1000 μg/mL inclusive, and C represents a potency of <64 μg/mL. NT=Not Tested.

[2] = test system: E. coli K12 PBP1a/b; assay: Bocillin FL competition binding assay, PBP1a/1b combined; parameters: species or system Escherichia coli K12; conditions: 15 min pre-incubation, PBP 1a/1b combined
Method: as §1, §2, §3, §4

[3] = test system: S. aureus ATCC 29213; assay: Broth microdilution MIC assay, S. aureus; format: cell-based; conditions: Staphylococcus aureus, ATCC29213; broth microdilution, 16-20 hours at 37° C.; read-out: S. aureus 29213 MIC
Summary of the method: (§5)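 MIC taken by eye as the lowest compound concentration showing no growth after 16-20 hours at 37° C. Cultures grown 3-5 h in cation-supplemented Mueller-Hinton broth were added to 2-fold compound dilution series at a starting density of 5×10^5 CFU/mL, following CLSI methods.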

[4] = test system: hyper-permeable E. coli 901C; assay: Broth microdilution MIC assay, hyper-permeable E. coli; format: cell-based; conditions: Escherichia coli, read-out: E. coli 901C MIC
Summary of the method: as §5

[5] = target: T2, E. coli PBP2 (Escherichia coli, UniProt P0AD65); assay: Bocillin FL competition binding assay, PBP2; parameters: species or system Escherichia coli K12; conditions: 15 min pre-incubation
T2 construct: 100 μg's of total membrane protein extracts containing PBPs; endogenous in cells; host or cells: Escherichia coli K12, membrane protein fraction
Method: as §1, §2, §3, §4

T2 sequence (P0AD65 whole entry): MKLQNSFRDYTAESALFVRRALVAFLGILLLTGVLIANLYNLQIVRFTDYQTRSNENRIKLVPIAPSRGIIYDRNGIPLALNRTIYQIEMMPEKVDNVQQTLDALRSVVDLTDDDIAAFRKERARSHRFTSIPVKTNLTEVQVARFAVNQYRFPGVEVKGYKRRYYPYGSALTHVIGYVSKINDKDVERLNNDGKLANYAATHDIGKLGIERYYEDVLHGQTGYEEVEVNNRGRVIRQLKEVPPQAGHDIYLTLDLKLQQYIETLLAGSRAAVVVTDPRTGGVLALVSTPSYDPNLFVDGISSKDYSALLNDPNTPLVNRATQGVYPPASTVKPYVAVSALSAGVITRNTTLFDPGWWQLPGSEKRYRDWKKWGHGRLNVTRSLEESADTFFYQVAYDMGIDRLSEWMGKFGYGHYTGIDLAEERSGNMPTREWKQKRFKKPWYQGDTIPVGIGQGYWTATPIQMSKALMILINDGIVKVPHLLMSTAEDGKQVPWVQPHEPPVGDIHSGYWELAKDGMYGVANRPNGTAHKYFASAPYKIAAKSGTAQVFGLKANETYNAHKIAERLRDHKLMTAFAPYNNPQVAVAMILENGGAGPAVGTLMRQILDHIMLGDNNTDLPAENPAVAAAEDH
T1 sequence (P0AD68 1-577): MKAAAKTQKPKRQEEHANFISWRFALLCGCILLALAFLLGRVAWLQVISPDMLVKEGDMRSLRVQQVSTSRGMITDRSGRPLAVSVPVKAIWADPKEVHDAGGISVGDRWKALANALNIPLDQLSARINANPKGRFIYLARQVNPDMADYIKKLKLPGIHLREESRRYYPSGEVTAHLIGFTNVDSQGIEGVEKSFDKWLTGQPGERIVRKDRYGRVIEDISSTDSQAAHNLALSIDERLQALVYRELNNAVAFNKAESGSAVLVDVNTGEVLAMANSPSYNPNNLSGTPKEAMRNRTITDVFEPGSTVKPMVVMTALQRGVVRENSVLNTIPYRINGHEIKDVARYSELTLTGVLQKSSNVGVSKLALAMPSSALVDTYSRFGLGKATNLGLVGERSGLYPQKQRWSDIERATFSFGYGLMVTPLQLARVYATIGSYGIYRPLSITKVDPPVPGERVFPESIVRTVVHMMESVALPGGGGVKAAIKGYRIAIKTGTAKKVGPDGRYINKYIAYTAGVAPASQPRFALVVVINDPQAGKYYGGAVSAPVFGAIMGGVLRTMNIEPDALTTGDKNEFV

Compound	E. coli PBP3 Potency [1]	E. coli K12 PBP1a/b Potency [2]	MIC [3] [mg/L]	MIC [4] [mg/L]	E. coli PBP2 Potency [5]
CNC(=O)C(C)O/N=C(\C(=O)N[C@H]1Cc2cccc(C(=O)O)c2OB1O)c1csc(N)n1 (stereo partly drawn) [Example 70, (3R)-3-((Z)-2-(2-aminothiazol-4-yl)-2-(((1-(methylamino)-1-oxopropan-2-yl)oxy)imino)acetamido)-2-hydroxy-3,4-dihydro-2H-benzo[e][1,2]oxaborinine-8-carboxylic Acid]	C (C represents a potency of <64 μg/mL)	C (C represents a potency of <64 μg/mL)	> 128	< 64	C (C represents a potency of <64 μg/mL)
NCc1ccc(/C(=N/O)C(=O)N[C@H]2Cc3cccc(C(=O)O)c3OB2O)cc1 [Example 12, (R,Z)-3-(2-(4-(aminomethyl)phenyl)-2-(hydroxyimino)acetamido)-2-hydroxy-3,4-dihydro-2H-benzo[e][1,2]oxaborinine-8-carboxylic Acid]	B (B represents a potency between 64 and 1000 μg/mL inclusive)	B (B represents a potency between 64 and 1000 μg/mL inclusive)	< 64	> 128	B (B represents a potency between 64 and 1000 μg/mL inclusive)
NCCCC[C@H](NC(=O)CO/N=C(\C(=O)N[C@H]1Cc2cccc(C(=O)O)c2OB1O)c1csc(N)n1)C(=O)O [Example 65, (R)-3-((Z)-2-((2-(((S)-5-amino-1-carboxypentyl)amino)-2-oxoethoxy)imino)-2-(2-aminothiazol-4-yl)acetamido)-2-hydroxy-3,4-dihydro-2H-benzo[e][1,2]oxaborinine-8-carboxylic]	C (C represents a potency of <64 μg/mL)	C (C represents a potency of <64 μg/mL)	> 128	< 64	B (B represents a potency between 64 and 1000 μg/mL inclusive)
Nc1nc(/C(=N/O)C(=O)N[C@H]2Cc3cc(CO)cc(C(=O)O)c3OB2O)cs1 [Example 35, (R,Z)-3-(2-(2-aminothiazol-4-yl)-2-(hydroxyimino)acetamido)-2-hydroxy-6-(hydroxymethyl)-3,4-dihydro-2H-benzo[e][1,2]oxaborinine-8-carboxylic Acid]	B (B represents a potency between 64 and 1000 μg/mL inclusive)	C (C represents a potency of <64 μg/mL)	64 to 128	> 128	A (A represents a potency of >1000 μg/mL)
CN(C)C(=O)CO/N=C(\C(=O)N[C@H]1Cc2cccc(C(=O)O)c2OB1O)c1csc(N)n1 [Example 60, (R,Z)-3-(2-(2-aminothiazol-4-yl)-2-((2-(dimethylamino)-2-oxoethoxy)imino)acetamido)-2-hydroxy-3,4-dihydro-2H-benzo[e][1,2]oxaborinine-8-carboxylic Acid]	C (C represents a potency of <64 μg/mL)	B (B represents a potency between 64 and 1000 μg/mL inclusive)	> 128	< 64	C (C represents a potency of <64 μg/mL)
Nc1nc(/C(=C/C(=O)O)C(=O)N[C@H]2Cc3cccc(C(=O)O)c3OB2O)cs1 [Example 89, (R,Z)-3-(2-(2-aminothiazol-4-yl)-3-carboxyacrylamido)-2-hydroxy-3,4-dihydro-2H-benzo[e][1,2]oxaborinine-8-carboxylic Acid]	C (C represents a potency of <64 μg/mL)	A (A represents a potency of >1000 μg/mL)	> 128	64 to 128	C (C represents a potency of <64 μg/mL)
Nc1nc(/C(=N\O)C(=O)N[C@H]2Cc3cccc(C(=O)O)c3OB2O)cs1 [Example 7, (R,E)-3-(2-(2-aminothiazol-4-yl)-2-(hydroxyimino)acetamido)-2-hydroxy-3,4-dihydro-2H-benzo[e][1,2]oxaborinine-8-carboxylic Acid]	A (A represents a potency of >1000 μg/mL)	A (A represents a potency of >1000 μg/mL)	64 to 128	< 64	B (B represents a potency between 64 and 1000 μg/mL inclusive)
Nc1nc(/C(=N/O)C(=O)N[C@H]2Cc3cc(F)c(F)c(C(=O)O)c3OB2O)cs1 [Example 41, (R,Z)-3-(2-(2-aminothiazol-4-yl)-2-(hydroxyimino)acetamido)-6,7-difluoro-2-hydroxy-3,4-dihydro-2H-benzo[e][1,2]oxaborinine-8-carboxylic Acid]	B (B represents a potency between 64 and 1000 μg/mL inclusive)	B (B represents a potency between 64 and 1000 μg/mL inclusive)	64 to 128	< 64	B (B represents a potency between 64 and 1000 μg/mL inclusive)
N#Cc1ccc(NC(=O)CO/N=C(\C(=O)N[C@H]2Cc3cccc(C(=O)O)c3OB2O)c2csc(N)n2)cc1 [Example 56, (R,Z)-3-(2-(2-aminothiazol-4-yl)-2-((2-((4-cyanophenyl)amino)-2-oxoethoxy)imino)acetamido)-2-hydroxy-3,4-dihydro-2H-benzo[e][1,2]oxaborinine-8-carboxylic Acid]	C (C represents a potency of <64 μg/mL)	B (B represents a potency between 64 and 1000 μg/mL inclusive)	64 to 128	< 64	C (C represents a potency of <64 μg/mL)
Nc1nc(/C(=N/O)C(=O)N[C@H]2Cc3cc(CCC(=O)O)cc(C(=O)O)c3OB2O)cs1 [Example 37, (R,Z)-3-(2-(2-aminothiazol-4-yl)-2-(hydroxyimino)acetamido)-6-(2-carboxyethyl)-2-hydroxy-3,4-dihydro-2H-benzo[e][1,2]oxaborinine-8-carboxylic Acid]	B (B represents a potency between 64 and 1000 μg/mL inclusive)	B (B represents a potency between 64 and 1000 μg/mL inclusive)	64 to 128	< 64	C (C represents a potency of <64 μg/mL)
